{"source": "ChEMBL document CHEMBL4376820", "about": "“Homodimeric Tobramycin Adjuvant Repurposes Novobiocin as an Effective Antibacterial Agent against Gram-Negative Bacteria” (J Med Chem, 2019)", "key": {"Acinetobacter baumannii [1]": {"test_system": "Acinetobacter baumannii", "experiment": "Antibacterial activity against colistin-resistant Acinetobacter baumannii ATCC 17978 mutant generated from seven serial passages by checkerboard assay", "assay_type": "functional"}, "Klebsiella pneumoniae [2]": {"test_system": "Klebsiella pneumoniae", "experiment": "Bactericidal activity against Klebsiella pneumoniae 116381 assessed as log reduction in colony forming units per ml at 7.1 in LB media after 24 hrs in presence of 50.4 uM novobiocin by time-kill assay", "assay_type": "functional, organism-based"}, "Klebsiella pneumoniae [3]": {"test_system": "Klebsiella pneumoniae", "experiment": "Potentiation of novobiocin-induced antibacterial activity against colistin-resistant Klebsiella pneumoniae 113254 clinical isolate assessed as novobiocin MIC at <= 7.1 uM incubated for 18 hrs by CLSI protocol based assay (reference value: 256 ug/ml)", "assay_type": "functional", "conditions": "Klebsiella pneumoniae, 113254, 18 h"}, "Pseudomonas aeruginosa [4]": {"test_system": "Pseudomonas aeruginosa", "experiment": "Synergistic antibacterial activity against wild type Pseudomonas aeruginosa PAO1 assessed as potentiation of chloramphenicol-induced antibacterial effect incubated for 18 hrs by checkerboard assay relative to chloramphenicol alone", "assay_type": "functional"}, "Acinetobacter baumannii [5]": {"test_system": "Acinetobacter baumannii", "experiment": "Antibacterial activity against wild type Acinetobacter baumannii ATCC 17978 assessed as resistant development at 7.1 uM in presence of novobiocin by microbroth dilution method relative to control", "assay_type": "functional"}, "Pseudomonas aeruginosa [6]": {"test_system": "Pseudomonas aeruginosa", "experiment": "Synergistic antibacterial activity against wild type Pseudomonas aeruginosa PAO1 assessed as potentiation of linezolid-induced antibacterial effect incubated for 18 hrs by checkerboard assay", "assay_type": "functional, organism-based"}, "Enterobacter cloacae [7]": {"test_system": "Enterobacter cloacae", "experiment": "Antibacterial activity against colistin-resistant Enterobacter cloacae 118568 clinical solate incubated for 18 hrs by CLSI protocol based assay", "assay_type": "functional", "conditions": "Enterobacter cloacae, 118568, 18 h"}, "Pseudomonas aeruginosa [8]": {"test_system": "Pseudomonas aeruginosa", "experiment": "Synergistic antibacterial activity against wild type Pseudomonas aeruginosa PAO1 assessed as potentiation of tobramycin-induced antibacterial effect at <= 7.1 uM incubated for 18 hrs by checkerboard assay", "assay_type": "functional, organism-based"}, "Acinetobacter baumannii [9]": {"test_system": "Acinetobacter baumannii", "experiment": "Potentiation of novobiocin-induced antibacterial activity against Acinetobacter baumannii LAC-4 clinical isolate assessed as fold reduction in novobiocin MIC incubated for 18 hrs by CLSI protocol based assay relative to novobiocin MIC", "assay_type": "functional"}, "Pseudomonas aeruginosa [10]": {"test_system": "Pseudomonas aeruginosa", "experiment": "Synergistic antibacterial activity against wild type Pseudomonas aeruginosa PAO1 assessed as potentiation of clindamycin-induced antibacterial effect incubated for 18 hrs by checkerboard assay", "assay_type": "functional, organism-based"}, "Pseudomonas aeruginosa [11]": {"test_system": "Pseudomonas aeruginosa", "experiment": "Synergistic antibacterial activity against wild type Pseudomonas aeruginosa PAO1 assessed as potentiation of aztreonam-induced antibacterial effect incubated for 18 hrs by checkerboard assay relative to aztreonam alone", "assay_type": "functional"}, "Klebsiella pneumoniae [12]": {"test_system": "Klebsiella pneumoniae", "experiment": "Antibacterial activity against Klebsiella pneumoniae 116381 clinical isolate incubated for 18 hrs by CLSI protocol based assay", "assay_type": "functional", "conditions": "Klebsiella pneumoniae, 116381, 18 h"}, "Pseudomonas aeruginosa [13]": {"test_system": "Pseudomonas aeruginosa", "experiment": "Synergistic antibacterial activity against wild type Pseudomonas aeruginosa PAO1 assessed as potentiation of ceftazidime-induced antibacterial effect incubated for 18 hrs by checkerboard assay", "assay_type": "functional, organism-based"}, "Pseudomonas aeruginosa [14]": {"test_system": "Pseudomonas aeruginosa", "experiment": "Induction of outer membrane permeabilization in Pseudomonas aeruginosa PAO1 assessed as increase in accumulation of NPN by measuring fluorescence intensity measured immediately by NPN dye uptake assay", "assay_type": "organism-based"}, "Pseudomonas aeruginosa [15]": {"test_system": "Pseudomonas aeruginosa", "experiment": "Potentiation of novobiocin-induced antibacterial activity against carbapenem-resistant Pseudomonas aeruginosa 262-101856 clinical isolate assessed as fold reduction in novobiocin MIC incubated for 18 hrs by CLSI protocol based assay relative to novobiocin MIC", "assay_type": "functional"}, "Pseudomonas aeruginosa [16]": {"test_system": "Pseudomonas aeruginosa", "experiment": "Synergistic antibacterial activity against wild type Pseudomonas aeruginosa PAO1 assessed as potentiation of meropenem-induced antibacterial effect incubated for 18 hrs by checkerboard assay relative to meropenem alone", "assay_type": "functional"}, "Pseudomonas aeruginosa [17]": {"test_system": "Pseudomonas aeruginosa", "experiment": "Synergistic antibacterial activity against wild type Pseudomonas aeruginosa PAO1 assessed as potentiation of moxifloxacin-induced antibacterial effect incubated for 18 hrs by checkerboard assay", "assay_type": "functional, organism-based"}, "Klebsiella pneumoniae [18]": {"test_system": "Klebsiella pneumoniae", "experiment": "Potentiation of novobiocin-induced antibacterial activity against colistin-resistant Klebsiella pneumoniae 113254 clinical isolate assessed as fold reduction in novobiocin MIC incubated for 18 hrs by CLSI protocol based assay relative to novobiocin MIC", "assay_type": "functional"}, "Acinetobacter baumannii [19]": {"test_system": "Acinetobacter baumannii", "experiment": "Bactericidal activity against Acinetobacter baumannii ATCC 17978 assessed as log reduction in colony forming units per ml at 7.1 uM in LB media after 9 hrs by time-kill assay", "assay_type": "functional"}, "Pseudomonas aeruginosa [20]": {"test_system": "Pseudomonas aeruginosa", "experiment": "Antibacterial activity against wild type Pseudomonas aeruginosa PAO1 assessed as fractional inhibitory concentration index incubated for 18 hrs in presence of tobramycin by checkerboard assay", "assay_type": "functional"}, "Escherichia coli [21]": {"test_system": "Escherichia coli", "experiment": "Antibacterial activity against carbapenem-resistant Escherichia coli 107115 clinical isolate harboring mcr-1 gene incubated for 18 hrs by CLSI protocol based assay", "assay_type": "functional", "conditions": "Escherichia coli, 107115, 18 h"}, "Pseudomonas aeruginosa [22]": {"test_system": "Pseudomonas aeruginosa", "experiment": "Synergistic antibacterial activity against wild type Pseudomonas aeruginosa PAO1 assessed as potentiation of chloramphenicol-induced antibacterial effect incubated for 18 hrs by checkerboard assay", "assay_type": "functional, organism-based"}, "Escherichia coli [23]": {"test_system": "Escherichia coli", "experiment": "Potentiation of novobiocin-induced antibacterial activity against colistin-resistant Escherichia coli 94474 clinical isolate harboring mcr-1 gene assessed as fold reduction in novobiocin MIC incubated for 18 hrs by CLSI protocol based assay relative to novobiocin MIC", "assay_type": "functional"}, "Pseudomonas aeruginosa [24]": {"test_system": "Pseudomonas aeruginosa", "experiment": "Synergistic antibacterial activity against wild type Pseudomonas aeruginosa PAO1 assessed as potentiation of minocycline-induced antibacterial effect incubated for 18 hrs by checkerboard assay relative to minocycline alone", "assay_type": "functional"}, "Acinetobacter baumannii [25]": {"test_system": "Acinetobacter baumannii", "experiment": "Antibacterial activity against novobiocin and test compound-resistant Acinetobacter baumannii ATCC 17978 mutant generated from seven serial passages in presence of novobiocin by checkerboard assay", "assay_type": "functional"}, "Pseudomonas aeruginosa [26]": {"test_system": "Pseudomonas aeruginosa", "experiment": "Synergistic antibacterial activity against wild type Pseudomonas aeruginosa PAO1 assessed as potentiation of moxifloxacin-induced antibacterial effect incubated for 18 hrs by checkerboard assay relative to moxifloxacin alone", "assay_type": "functional"}, "Acinetobacter baumannii [27]": {"test_system": "Acinetobacter baumannii", "experiment": "Antibacterial activity against colistin-resistant Acinetobacter baumannii 92257 clinical isolate incubated for 18 hrs by CLSI protocol based assay", "assay_type": "functional", "conditions": "Acinetobacter baumannii, 92257, 18 h"}, "Acinetobacter baumannii [28]": {"test_system": "Acinetobacter baumannii", "experiment": "Potentiation of novobiocin-induced antibacterial activity against Acinetobacter baumannii 110193 clinical isolate assessed as novobiocin MIC at <= 7.1 uM incubated for 18 hrs by CLSI protocol based assay (reference value: 256 ug/ml)", "assay_type": "functional", "conditions": "Acinetobacter baumannii, 110193, 18 h"}, "Pseudomonas aeruginosa [29]": {"test_system": "Pseudomonas aeruginosa", "experiment": "Potentiation of novobiocin-induced antibacterial activity against carbapenem-resistant Pseudomonas aeruginosa 262-101856 clinical isolate assessed as novobiocin MIC at <= 7.1 uM incubated for 18 hrs by CLSI protocol based assay (reference value: 512 ug/ml)", "assay_type": "functional", "conditions": "262-101856, 18 h"}, "Pseudomonas aeruginosa [30]": {"test_system": "Pseudomonas aeruginosa", "experiment": "Antibacterial activity against carbapenem-resistant Pseudomonas aeruginosa 262-101856 clinical isolate incubated for 18 hrs by CLSI protocol based assay", "assay_type": "functional", "conditions": "262-101856, 18 h"}, "Pseudomonas aeruginosa [31]": {"test_system": "Pseudomonas aeruginosa", "experiment": "Synergistic antibacterial activity against wild type Pseudomonas aeruginosa PAO1 assessed as potentiation of ciprofloxacin-induced antibacterial effect incubated for 18 hrs by checkerboard assay relative to ciprofloxacin alone", "assay_type": "functional"}, "HepG2": {"test_system": "HepG2", "experiment": "Cytotoxicity against human HepG2 cells at 50 uM incubated for 48 hrs by PrestoBlue dye based fluorescence assay", "assay_type": "cell-based", "conditions": "hepg2, 48 h"}, "Pseudomonas aeruginosa [32]": {"test_system": "Pseudomonas aeruginosa", "experiment": "Synergistic antibacterial activity against wild type Pseudomonas aeruginosa PAO1 assessed as potentiation of levofloxacin-induced antibacterial effect incubated for 18 hrs by checkerboard assay relative to levofloxacin alone", "assay_type": "functional"}, "Pseudomonas aeruginosa [33]": {"test_system": "Pseudomonas aeruginosa", "experiment": "Antibacterial activity against carbapenem and colistin-resistant Pseudomonas aeruginosa 114228 clinical incubated for 18 hrs by CLSI protocol based assay B84", "assay_type": "functional", "conditions": "Pseudomonas aeruginosa, 114228, 18 h"}, "Enterobacter cloacae [34]": {"test_system": "Enterobacter cloacae", "experiment": "Potentiation of novobiocin-induced antibacterial activity against Enterobacter cloacae 117029 clinical solate assessed as fold reduction in novobiocin MIC incubated for 18 hrs by CLSI protocol based assay relative to novobiocin MIC", "assay_type": "functional"}}, "note": "The source made the active and inactive calls. The rule behind the calls is not given here."}
{"smiles": "NC[C@H]1O[C@H](O[C@H]2[C@H](OCCCCc3cn(CCCCO[C@@H]4[C@@H](O[C@H]5O[C@H](CO)[C@@H](O)[C@H](N)[C@H]5O)[C@H](N)C[C@H](N)[C@H]4O[C@H]4O[C@H](CN)[C@@H](O)C[C@H]4N)nn3)[C@@H](O[C@H]3O[C@H](CO)[C@@H](O)[C@H](N)[C@H]3O)[C@H](N)C[C@@H]2N)[C@H](N)C[C@@H]1O.O=C(O)C(F)(F)F.O=C(O)C(F)(F)F.O=C(O)C(F)(F)F.O=C(O)C(F)(F)F.O=C(O)C(F)(F)F.O=C(O)C(F)(F)F.O=C(O)C(F)(F)F.O=C(O)C(F)(F)F.O=C(O)C(F)(F)F.O=C(O)C(F)(F)F", "values": [{"measurement": "MIC", "setting": "Acinetobacter baumannii [1]", "value": "< 0.031", "unit": "µg/mL"}, {"measurement": "Activity", "setting": "Klebsiella pneumoniae [2]", "value": "Active"}, {"measurement": "MIC", "setting": "Klebsiella pneumoniae [3]", "value": 16, "unit": "µg/mL"}, {"measurement": "fold change (FC)", "setting": "Pseudomonas aeruginosa [4]", "value": "4 - 128"}, {"measurement": "fold change (FC)", "setting": "Acinetobacter baumannii [5]", "value": 2}, {"measurement": "Activity", "setting": "Pseudomonas aeruginosa [6]", "value": "Dose-dependent effect"}, {"measurement": "MIC", "setting": "Enterobacter cloacae [7]", "value": "> 128", "unit": "µg/mL"}, {"measurement": "Activity", "setting": "Pseudomonas aeruginosa [8]", "value": "inactive"}, {"measurement": "Ratio", "setting": "Acinetobacter baumannii [9]", "value": 16}, {"measurement": "Activity", "setting": "Pseudomonas aeruginosa [10]", "value": "Dose-dependent effect"}, {"measurement": "fold change (FC)", "setting": "Pseudomonas aeruginosa [11]", "value": "4 - 128"}, {"measurement": "MIC", "setting": "Klebsiella pneumoniae [12]", "value": "> 128", "unit": "µg/mL"}, {"measurement": "Activity", "setting": "Pseudomonas aeruginosa [13]", "value": "Dose-dependent effect"}, {"measurement": "Activity", "setting": "Pseudomonas aeruginosa [14]", "value": "Dose-dependent effect"}, {"measurement": "Ratio", "setting": "Pseudomonas aeruginosa [15]", "value": 64}, {"measurement": "fold change (FC)", "setting": "Pseudomonas aeruginosa [16]", "value": "4 - 128"}, {"measurement": "Activity", "setting": "Pseudomonas aeruginosa [17]", "value": "Dose-dependent effect"}, {"measurement": "Ratio", "setting": "Klebsiella pneumoniae [18]", "value": 16}, {"measurement": "Activity", "setting": "Acinetobacter baumannii [19]", "value": -3, "unit": "CFU/ml"}, {"measurement": "fractional inhibitory concentration index (FICI)", "setting": "Pseudomonas aeruginosa [20]", "value": ">4"}, {"measurement": "MIC", "setting": "Escherichia coli [21]", "value": "> 128", "unit": "µg/mL"}, {"measurement": "Activity", "setting": "Pseudomonas aeruginosa [22]", "value": "Dose-dependent effect"}, {"measurement": "Ratio", "setting": "Escherichia coli [23]", "value": 16}, {"measurement": "fold change (FC)", "setting": "Pseudomonas aeruginosa [24]", "value": "4 - 128"}, {"measurement": "MIC", "setting": "Acinetobacter baumannii [25]", "value": 16, "unit": "µg/mL"}, {"measurement": "fold change (FC)", "setting": "Pseudomonas aeruginosa [26]", "value": "4 - 128"}, {"measurement": "MIC", "setting": "Acinetobacter baumannii [27]", "value": "> 128", "unit": "µg/mL"}, {"measurement": "MIC", "setting": "Acinetobacter baumannii [28]", "value": 1, "unit": "µg/mL"}, {"measurement": "MIC", "setting": "Pseudomonas aeruginosa [29]", "value": 8, "unit": "µg/mL"}, {"measurement": "MIC", "setting": "Pseudomonas aeruginosa [30]", "value": "> 128", "unit": "µg/mL"}, {"measurement": "fold change (FC)", "setting": "Pseudomonas aeruginosa [31]", "value": "4 - 128"}, {"measurement": "Activity", "setting": "HepG2", "value": "Non-Toxic"}, {"measurement": "fold change (FC)", "setting": "Pseudomonas aeruginosa [32]", "value": "4 - 128"}, {"measurement": "MIC", "setting": "Pseudomonas aeruginosa [33]", "value": "> 128", "unit": "µg/mL"}, {"measurement": "Ratio", "setting": "Enterobacter cloacae [34]", "value": 128}]}
